The molecules below were run against T1, hGOAT (Homo sapiens, UniProt Q96T53) (assay: Determination of hGOAT activity in HEK293 cells after incubation with test compound (acyl-ghrelin ELISA)). Details: HEK293 cells stably transfected with preproghrelin and human GOAT; octanoate-BSA 100 μM; 5 hours incubation; acyl-ghrelin in medium by ELISA; 8 compound concentrations.
T1 construct: expressed in transfected cells; host or cells: HEK293 (Hek293 hGOAT/PPGhrl Clone #1B8)
T1 sequence (Q96T53 1-435): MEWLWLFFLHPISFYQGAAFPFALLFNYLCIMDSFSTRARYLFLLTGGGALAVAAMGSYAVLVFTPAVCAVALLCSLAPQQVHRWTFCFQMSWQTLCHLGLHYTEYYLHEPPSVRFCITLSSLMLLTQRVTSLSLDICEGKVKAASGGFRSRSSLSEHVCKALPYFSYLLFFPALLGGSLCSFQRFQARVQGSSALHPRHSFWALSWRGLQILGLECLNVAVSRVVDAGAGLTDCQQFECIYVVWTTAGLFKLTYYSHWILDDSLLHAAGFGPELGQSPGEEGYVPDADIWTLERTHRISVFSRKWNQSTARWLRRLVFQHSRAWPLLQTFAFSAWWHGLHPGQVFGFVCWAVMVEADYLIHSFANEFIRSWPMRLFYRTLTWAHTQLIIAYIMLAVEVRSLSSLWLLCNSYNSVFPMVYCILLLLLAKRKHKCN
Format: cell-based
Experimental: Determination of hGOAT Activity in HEK293 Cells after Incubation with Test Compound
HEK293 cells stably transfected with two expression vectors, one coding for preproghrelin cDNA and a second for the expression of human GOATcDNA are used as a cellular model. After feeding the cells with octanoic acid for 5 hours, acyl-ghrelin is measured in cell culture medium by an ELISA procedure.
Cellline: Hek293 hGOAT/PPGhrl Clone #1B8Sodium octanoate, Sigma, Cat.-No. C5038
BD Poly-D-Lysin 384-well Plates, black-clear polystyrene BD Bioscience Cat.-No. […] ELISA human acylated Ghrelin Kit purchased from Bertin Pharman (detailed composition of buffers e.g. wash-puffer, ELISA buffer not known)
Cells are plated with a density of 5000 cells/well in 384-well poly-D-lysin plates and incubated for 1 day at 37° C., 5% CO2 in DMEM medium, 10% FCS, 1×NEAA, Puromycin (0.5 μg/ml) and G418 (1 mg/ml). Then the medium is changed to a identical medium without FCS and containing Octanoate-BSA (final concentration 100 μM each) and compound in DMSO (final DMSO concentration 0,3%). After incubation for 5 hours acylghrelin in the medium is measured by ELISA.
The medium sample is diluted 1:25 in Elisa buffer, a 25 μl aliquot is transferred to a 384-well ELISA plate previously washed 4 times with 100 μL wash buffer, and 25 μl tracer-solution is added. After incubation overnight (˜20 h) at 4° C. temperature the plate is washed 4 times with 100 μl wash-buffer per well. Finally 50 μl Ellman's reagent is added to each well and the plate is incubated in the dark for 20 minutes. The absorbance is measured at 405 nm in an Envision multilabel reader and the amount of acylated ghrelin is calculated according to a acylated ghrelin standard curve provided in the same plate.
The analysis of the data is performed by calculation of the percentage of acyl-ghrelin produced in the presence of test compound compared to the amount of acyl-ghrelin produced in the vehicle control samples. An inhibitor of the GOAT enzyme will give values between 100% CTL (no inhibition) and 0% CTL (complete inhibition).
IC50 values are calculated with Assay Explorer or other suited software based on curve fitting of results of 8 different compound concentrations.

**Q.** For Cc1nc2nonc2c(N)c1Cc1ccc(C(F)(F)F)n2cnnc12 [Compound 4.12, 5-Methyl-6-{[5-(trifluoromethyl)-[1,2,4]triazolo[4,3-a]pyridin-8-yl]methyl}-[1,2,5]oxadiazolo[3,4-b]pyridin-7-amine], which IC50 is on record?
**A.** 571 pM

**Q.** For Cc1nc2nonc2c(N)c1Cc1cccn2c(C3CC3)nnc12 [Compound 4.13, 6-({3-Cyclopropyl-[1,2,4]triazolo[4,3-a]pyridin-8-yl}methyl)-5-methyl-[1,2,5]oxadiazolo[3,4-b]pyridin-7-amine], which IC50 is on record?
**A.** 890 pM

**Q.** Which IC50 does the source give for Cc1nc2nonc2c(N)c1Cc1ccc(Cl)n2cnnc12 [Compound 4.14, 6-({5-Chloro-[1,2,4]triazolo[4,3-a]pyridin-8-yl}methyl)-5-methyl-[1,2,5]oxadiazolo[3,4-b]pyridin-7-amine] here?
**A.** 665 pM

**Q.** For Cc1nc2nonc2c(N)c1Cc1ccc(OC(F)F)n2cnnc12 [Compound 4.15, 6-{[5-(Difluoromethoxy)-[1,2,4]triazolo[4,3-a]pyridin-8-yl]methyl}-5-methyl-[1,2,5]oxadiazolo[3,4-b]pyridin-7-amine], which IC50 is on record?
**A.** 330 pM

**Q.** With Cc1nc2nonc2c(N)c1Cc1ccc(OC(F)F)nc1 [Compound 4.16, 6-{[6-(Difluoromethoxy)pyridin-3-yl]methyl}-5-methyl-[1,2,5]oxadiazolo[3,4-b]pyridin-7-amine] as the molecule, how does the IC50 read?
**A.** 642 pM

**Q.** Cc1nc2nonc2c(N)c1Cc1ccc(OC2CCC2)nc1 [Compound 4.17, 6-[(6-Cyclobutoxypyridin-3-yl)methyl]-5-methyl-[1,2,5]oxadiazolo[3,4-b]pyridin-7-amine] was tested. Which IC50 did it give?
**A.** 371 pM

**Q.** Cc1nc2nonc2c(N)c1Cc1ccc(Cl)nc1 [Compound 4.18, 6-[(6-Chloropyridin-3-yl)methyl]-5-methyl-[1,2,5]oxadiazolo[3,4-b]pyridin-7-amine] was tested. Which IC50 did it give?
**A.** 1650 pM

**Q.** For CSc1ccc(Cc2c(C)nc3nonc3c2N)cc1 [Compound 4.19, 5-Methyl-6-{[4-(methylsulfanyl)phenyl]methyl}-[1,2,5]oxadiazolo[3,4-b]pyridin-7-amine], which IC50 is on record?
**A.** 174 pM

**Q.** For Cc1nc2nonc2c(N)c1Cc1ccc2nccn2c1 [Compound 4.20, 6-Imidazo[1,2-a]pyridin-6-ylmethyl-5-methyl-[1,2,5]oxadiazolo[3,4-b]pyridin-7-ylamine], which IC50 is on record?
**A.** 5510 pM

**Q.** With Cc1nc2nonc2c(N)c1Cc1ccn2ncnc2c1 [Compound 4.21, 5-Methyl-6-({[1,2,4]triazolo[1,5-a]pyridin-7-yl}methyl)-[1,2,5]oxadiazolo[3,4-b]pyridin-7-amine] as the molecule, how does the IC50 read?
**A.** 3410 pM

**Q.** With Cc1ncc(-c2ccc(Cc3c(C)nc4nonc4c3N)cn2)o1 [Compound 4.22, 5-Methyl-6-{[6-(2-methyl-1,3-oxazol-5-yl)pyridin-3-yl]methyl}-[1,2,5]oxadiazolo[3,4-b]pyridin-7-amine] as the molecule, how does the IC50 read?
**A.** 4810 pM

**Q.** For COC(=O)c1cn2cc(Cc3c(C)nc4nonc4c3N)ccc2n1 [Compound 4.23, Methyl 6-({7-amino-5-methyl-[1,2,5]oxadiazolo[3,4-b]pyridin-6-yl}methyl)imidazo[1,2-a]pyridine-2-carboxylate], which IC50 is on record?
**A.** 7760 pM

**Q.** With Cc1nc2nonc2c(N)c1Cc1ccc(C(C)(C)C#N)nc1 [Compound 4.24, 2-[5-({7-Amino-5-methyl-[1,2,5]oxadiazolo[3,4-b]pyridin-6-yl}methyl)pyridin-2-yl]-2-methylpropanenitrile] as the molecule, how does the IC50 read?
**A.** 838 pM

**Q.** For CCC(C#N)(CC)c1ccc(Cc2c(C)nc3nonc3c2N)cn1 [Compound 4.25, 2-[5-({7-Amino-5-methyl-[1,2,5]oxadiazolo[3,4-b]pyridin-6-yl}methyl)pyridin-2-yl]-2-ethylbutanenitrile], which IC50 is on record?
**A.** 81 pM

**Q.** Which IC50 does the source give for Cc1nc2nonc2c(N)c1Cc1ccc(C2(C#N)CCCC2)nc1 [Compound 4.26, 1-[5-({7-Amino-5-methyl-[1,2,5]oxadiazolo[3,4-b]pyridin-6-yl}methyl)pyridin-2-yl]cyclopentane-1-carbonitrile] here?
**A.** 98 pM

**Q.** With Cc1nc2nonc2c(N)c1Cc1ccc(C2(C#N)CCOCC2)nc1 [Compound 4.27, 4-[5-({7-Amino-5-methyl-[1,2,5]oxadiazolo[3,4-b]pyridin-6-yl}methyl)pyridin-2-yl]oxane-4-carbonitrile] as the molecule, how does the IC50 read?
**A.** 1650 pM

**Q.** How did the IC50 turn out when Cc1nc2nonc2c(N)c1Cc1ccc(C2(C#N)CC(F)(F)C2)nc1 [Compound 4.28, 1-[5-({7-Amino-5-methyl-[1,2,5]oxadiazolo[3,4-b]Pyridin-6-yl}methyl)pyridin-2-yl]-3,3-difluorocyclobutane-1-carbonitrile] was run?
**A.** 1500 pM

**Q.** For Cc1nc2nonc2c(N)c1Cc1ccc(Br)nc1 [Compound 4.29, 6-[(6-Bromopyridin-3-yl)methyl]-5-methyl-[1,2,5]oxadiazolo[3,4-b]pyridin-7-amine], which IC50 is on record?
**A.** 1270 pM

**Q.** How did the IC50 turn out when Cc1nc2nonc2c(N)c1Cc1ccc(C(F)F)nc1 [Compound 4.30, 6-{[6-(Difluoromethyl)pyridin-3-yl]methyl}-5-methyl-[1,2,5]oxadiazolo[3,4-b]pyridin-7-amine] was run?
**A.** 1390 pM

**Q.** Which IC50 does the source give for Cc1nc2nonc2c(N)c1Cc1ccc(C#N)c(F)c1 [Compound 4.31, 4-({7-Amino-5-methyl-[1,2,5]oxadiazolo[3,4-b]pyridin-6-yl}methyl)-2-fluorobenzonitrile] here?
**A.** 487 pM

**Q.** Cc1nc2nonc2c(N)c1Cc1ccc(SC(F)(F)F)cc1 [Compound 4.32, 5-Methyl-6-({4-[(trifluoromethyl)sulfanyl]phenyl}methyl)-[1,2,5]oxadiazolo[3,4-b]pyridin-7-amine] was tested. Which IC50 did it give?
**A.** 64 pM

**Q.** How did the IC50 turn out when Cc1nc2nonc2c(N)c1Cc1ccc(OC(F)F)cc1 [Compound 4.33, 6-{[4-(Difluoromethoxy)phenyl]methyl}-5-methyl-[1,2,5]oxadiazolo[3,4-b]pyridin-7-amine] was run?
**A.** 114 pM

**Q.** Which IC50 does the source give for Cc1nc2nonc2c(N)c1Cc1ccc2nn(C)cc2c1 [Compound 4.34, 5-Methyl-6-[(2-methyl-2H-indazol-5-yl)methyl]-[1,2,5]oxadiazolo[3,4-b]pyridin-7-amine] here?
**A.** 1400 pM

**Q.** Which IC50 does the source give for Cc1nc2nonc2c(N)c1Cc1ccc(C#N)c(OC(F)F)c1 [Compound 4.35, 4-({7-Amino-5-methyl-[1,2,5]oxadiazolo[3,4-b]pyridin-6-yl}methyl)-2-(difluoromethoxy)benzonitrile] here?
**A.** 111 pM

**Q.** Which IC50 does the source give for Cc1nc2nonc2c(N)c1Cc1cccc(C#N)c1 [Compound 4.36, 3-(7-Amino-5-methyl-[1,2,5]oxadiazolo[3,4-b]pyridin-6-ylmethyl)-benzonitrile] here?
**A.** 5800 pM

**Q.** With Cc1nc2nonc2c(N)c1Cc1cc(I)ncc1C(F)(F)F [Compound 4.37, 6-{[2-Iodo-5-(trifluoromethyl)pyridin-4-yl]methyl}-5-methyl-[1,2,5]oxadiazolo[3,4-b]pyridin-7-amine] as the molecule, how does the IC50 read?
**A.** 534 pM

**Q.** With Cc1nc2nonc2c(N)c1Cc1cccc(C(F)(F)F)c1 [Compound 4.38, 5-Methyl-6-{[3-(trifluoromethyl)phenyl]methyl}-[1,2,5]oxadiazolo[3,4-b]pyridin-7-amine] as the molecule, how does the IC50 read?
**A.** 268 pM

**Q.** Cc1nc2nonc2c(N)c1Cc1ccnc(C#N)c1 [Compound 4.39, 4-({7-Amino-5-methyl-[1,2,5]oxadiazolo[3,4-b]pyridin-6-yl}methyl)pyridine-2-carbonitrile] was tested. Which IC50 did it give?
**A.** 9390 pM

**Q.** Cc1nc2nonc2c(N)c1Cc1ccnc(C(F)(F)F)c1 [Compound 4.40, 5-Methyl-6-{[2-(trifluoromethyl)pyridin-4-yl]methyl}-[1,2,5]oxadiazolo[3,4-b]pyridin-7-amine] was tested. Which IC50 did it give?
**A.** 2210 pM

**Q.** Cc1nc2nonc2c(N)c1Cc1cccc(OC(F)(F)F)c1 [Compound 4.41, 5-Methyl-6-{[3-(trifluoromethoxy)phenyl]methyl}-[1,2,5]oxadiazolo[3,4-b]pyridin-7-amine] was tested. Which IC50 did it give?
**A.** 428 pM

**Q.** How did the IC50 turn out when Cc1nc2nonc2c(N)c1Cc1cccc(S(=O)(=O)C(F)(F)F)c1 [Compound 4.42, 5-Methyl-6-[(3-trifluoromethanesulfonylphenyl)methyl]-[1,2,5]oxadiazolo[3,4-b]pyridin-7-amine] was run?
**A.** 377 pM

From patent US11254688B2 (Boehringer Ingelheim International GmbH, priority 2018, dated 2022)
